Converted amounts (≈) assume the structure as drawn.
Legend:
[1] = test system: Bacillus subtilis 10707; test: Antibacterial activity (minimum growth inhibitory concentration), agar dilution method; assay type: cell-based; conditions: Bacillus subtilis 10707, pH 7.0, agar dilution method; read-out: minimum growth inhibitory concentration, BS
Description: (§1) Antibacterial activities of Compounds (I) against various bacteria are shown by the minimum growth inhibitory concentration (μg/ml) in Table 3. The minimum growth inhibitory concentration was measured at pH 7.0 according to the agar dilution method. In the table, bacteria are indicated by the following letters.
BS: Bacillus subtilis 10707

[2] = test system: peripheral leucocytes; test: Effect on the peripheral leucocytes number; assay type: in vivo, mouse (ddY strain); conditions: minimum dose reducing peripheral leucocytes number to 4000/mm^3; tumour-carrying ddY mice, intraperitoneal, 4 days after administration
Description: WBC4000 : Minimum dose of a test compound which reduces the
peripheral leucocytes number to 4000/mm^3.
Sarcoma 180 solid tumour cells (5×10^6) were subcutaneously implanted into the right axilla of each mouse (body weight 20±2 g) of a group consisting of 5 male mice (ddY strain). 24 hours after implantation,a test compound was intraperitoneally administered to each animal. 4 days after the administration, blood (each 0.02 ml) was collected from the suborbital plexus vein of each tumour-carrying animal. The collected sample of blood was dispersed in 9.98 ml of Cell-Kit Seven solution. One drop of saponin solution was added to the sample to dissolve erythrocytes and then a microcell counter was used to count the number of leucocytes. […] The relationship between the number of peripheral leucocytes and the dose of the test compound was plotted and the dose (i.e., WBC4000) corresponding to 4000 peripheral leucocytes/mm^3 (about half the number of leucocytes of normal mice) was obtained.

[3] = test system: Streptococcus faecalis ATCC 10541; test: Antibacterial activity (minimum growth inhibitory concentration), agar dilution method; assay type: cell-based; conditions: Enterococcus faecalis, ATCC10541; Streptococcus faecalis ATCC 10541, pH 7.0, agar dilution method; read-out: minimum growth inhibitory concentration, SF
Description: as §1
SF: Streptococcus faecalis ATCC 10541

[4] = test system: Proteus vulgalis ATCC 6897; test: as above; assay type: cell-based; conditions: pH 7, read-out: minimum growth inhibitory concentration, PV
Description: as §1
PV: Proteus vulgalis ATCC 6897

[5] = Solubility in water; assay type: physicochemical; conditions: aqueous buffer; 0.03M phosphate buffer (pH 7.0), 22° C., 15 minutes
Description: 1 mg of a test compound was added to 100 μl of 0.03M phosphate buffer (pH 7.0). The mixture was stirred at 22° C. for 15 minutes and filtered through Ekicrodisc 3 (disposable filter unit, Gelman Sciences Japan Co.) to remove insoluble matters. The filtrate is a saturated solution of the test compound. Predetermined amount of the saturated solution was injected into a high performance liquid chromatograph [column: YMC-A212 (C8) .phi.6 mm, 150 mm, eluting solvent: 0.01M-ammonium acetate/methanol, wave length for detection: 254 nm] and peak area of the chromatogram was calculated. Separately, a solution of the test compound in methanoL having a certain concentration of the compound was similarly subjected to the chromatography to make the calibration curve. The solubility of the test compound was calculated by the calibration curve.

[6] = test system: Sarcoma 180 solid tumour; test: animal or person; conditions: for CIc: CI of test compound divided by CI of mitomycin C as control in the same condition; for ED50: Mus musculus, Sarcoma-180, iv, 168 h; for CI (LD50/ED50): chemotherapeutic index
Description: CIc : Value given by division of CI of each test compound by CI of
determination of antitumour activity of the test compound. A CIc
5×10^6 cells of Sarcoma 180 solid tumour were intraperitoneally implanted into ddY mice. 7 days later, ascites cells were sampled. The cells were washed once with a sterilized physiological sodium chloride solution and were used to prepare a cell suspension containing 5×10^7 cells per ml with a sterilized physiological sodium chloride solution. On each occasion, 0.1 ml of the cell suspension was subcutaneously implanted into the right axilla of a male mouse (ddY strain; body weight 20±2 g).
The anti-tumour activity was determined in the following manner. 7 days after the implantation, the major axis (a) and the minor axis (b) of the tumour were measured to calculate a value of "a×b^2 /2" which corresponds to the volume of the tumour. The anti-tumour activity was expressed by the ratio (T/C) of the volume (T) of the tumours of the group of animals administered with the test compound to the corresponding volume (C) of tumours of the untreated animals.
On graph paper, T/C was indicated by an arithmetic scale on the longitudinal axis and the administered amount of the test compound was indicated by a logarithmic scale on the lateral axis.

[7] = test system: Staphylococcus aureus ATCC 6538P; test: Antibacterial activity (minimum growth inhibitory concentration), agar dilution method; assay type: cell-based; conditions: ATCC6538P, pH 7.0, agar dilution method, read-out: minimum growth inhibitory concentration, SA
Description: as §1
SA: Staphylococcus aureus ATCC 6538P

[8] = Acute toxicity; conditions: mouse, in vivo, ip; ddY mice, intraperitoneally once, 14 days observation
Description: Each animal of the test group consisting of 5 ddY mice was administered intraperitoneally once with a test compound. […] The LD50 was determined by Beherns Kaerber's method.

[9] = test system: Klebsiella pneumoniae ATCC 10031; test: Antibacterial activity (minimum growth inhibitory concentration), agar dilution method; assay type: cell-based; conditions: ATCC10031; Klebsiella pneumoniae ATCC 10031, pH 7.0, agar dilution method; read-out: minimum growth inhibitory concentration, KP
Description: as §1
KP: Klebsiella pneumoniae ATCC 10031

Row | Compound | MIC [1] [mg/L] | WBC4000 [2] [mg/kg] | MIC [3] [mg/L] | MIC [4] [mg/L] | solubility at 0.25 h [5] [mg/mL] | CIc [6] | ED50 [6] [mg/kg] | CI (LD50/ED50) [6] | MIC [7] [mg/L] | LD50 at 336 h [8] [mg/kg] | MIC [9] [mg/L]
1 | CO[C@@]12[C@H](COC(N)=O)C3=C(C(=O)C(C)=C(NCCSC(C)=O)C3=O)N1C[C@@H]1N[C@@H]12 [Compound 1, 7-N-[(2-acetylthio)ethyl]mitomycin] | < 0.02 | 9.5 | < 0.02 | 1.3 (≈ 2.98 µM) | 5.6 (≈ 12800 µM) | 1.2 | 2.3 | 2.4 | < 0.02 | 5.6 | 0.078 (≈ 0.179 µM)
2 | CC(=O)SCCNC1=C(C)C(=O)C2=C(C1=O)[C@H](COC(N)=O)[C@@]1(O)[C@@H]3[C@H](CN21)N3C (stereo partly shown) [Compound 2] | 0.78 (≈ 1.79 µM) | 14.1 | 3.1 (≈ 7.1 µM) | 25 (≈ 57.3 µM) | 8.9 (≈ 20400 µM) | 1.9 | 5.6 | 4.7 | 3.1 (≈ 7.1 µM) | 26.3 | 6.3 (≈ 14.4 µM)
3 | CO[C@@]12[C@H](COC(N)=O)C3=C(C(=O)C(C)=C(NCCSC(C)=O)C3=O)N1C[C@H]1[C@@H]2N1C (stereo partly shown) [Compound 3] | < 0.02 | 11.0 | 0.039 (≈ 0.0866 µM) | 20 (≈ 44.4 µM) | 3.8 (≈ 8430 µM) | 0.88 | 5.6 | 1.7 | 0.078 (≈ 0.173 µM) | 9.4 | 1.3 (≈ 2.89 µM)
4 | C=C1C2=C(C(=O)C(C)=C(NCCSC(C)=O)C2=O)N2C[C@H]3[C@H](N3C)[C@]12O (stereo partly shown) [Compound 4] | 6.3 (≈ 16.8 µM) | 27.1 | > 100 | 100 (≈ 266 µM) | 1.9 (≈ 5060 µM) | 1.6 | 14.9 | 3.0 | 50 (≈ 133 µM) | 45 | 25 (≈ 66.6 µM)
5 | CO[C@@]12[C@H](COC(N)=O)C3=C(C(=O)C(C)=C(NCCCSC(C)=O)C3=O)N1C[C@@H]1N[C@@H]12 [Compound 7] | < 0.02 | > 25 | < 0.02 | 2.5 (≈ 5.55 µM) | 3.5 (≈ 7770 µM) | 0.88 | 5.2 | 2.2 | 0.039 (≈ 0.0866 µM) | 11.3 | 0.31 (≈ 0.688 µM)
6 | CC(=O)SCCCNC1=C(C)C(=O)C2=C(C1=O)[C@H](COC(N)=O)[C@@]1(O)[C@@H]3[C@H](CN21)N3C (stereo partly shown) [Compound 8, 7-N-(3-acetylthiopropyl)mitomycin D] | 13 (≈ 28.9 µM) | – | 50 (≈ 111 µM) | – | 9.6 (≈ 21300 µM) | – | – | – | > 100 | – | –
7 | CO[C@@]12[C@H](COC(N)=O)C3=C(C(=O)C(C)=C(NCCCCSC(C)=O)C3=O)N1C[C@@H]1N[C@@H]12 [Compound 9] | < 0.02 | 65.2 | < 0.02 | 5 (≈ 10.8 µM) | 2 (≈ 4310 µM) | 1.6 | 21.7 | 4.1 | 0.039 (≈ 0.084 µM) | 90 | 0.31 (≈ 0.667 µM)
8 | CO[C@@]12[C@H](COC(N)=O)C3=C(C(=O)C(C)=C(NCCCCCSC(C)=O)C3=O)N1C[C@@H]1N[C@@H]12 [Compound 10] | 0.078 (≈ 0.163 µM) | > 75 | 0.039 (≈ 0.0815 µM) | 5 (≈ 10.4 µM) | 1 (≈ 2090 µM) | > 1.1 | 37.5 | > 2.0 | 0.078 (≈ 0.163 µM) | > 75 | 1.3 (≈ 2.72 µM)
9 | CC(=S)SCCNC1=C(C)C(=O)C2=C(C1=O)[C@H](COC(N)=O)[C@@]1(O)[C@@H]3[C@H](CN21)N3C (stereo partly shown) [Compound 27, 7-N-(2-dithioacetyloxyethyl)mitomycin D] | < 0.049 | 15.5 | 0.39 (≈ 0.862 µM) | 3.1 (≈ 6.85 µM) | – | 1.1 | 3.4 | 3.9 | 0.2 (≈ 0.442 µM) | 13.1 | 0.78 (≈ 1.72 µM)
10 | CO[C@@]12[C@H](COC(N)=O)C3=C(C(=O)C(C)=C(NCCSC(C)=S)C3=O)N1C[C@H]1[C@@H]2N1C (stereo partly shown) [Compound 28] | < 0.02 | 10.4 | 0.039 (≈ 0.0836 µM) | 2.5 (≈ 5.36 µM) | – | 1.1 | 3.3 | 4.0 | < 0.02 | 13.1 | 1.3 (≈ 2.79 µM)
11 | CO[C@@]12[C@H](COC(N)=O)C3=C(C(=O)C(C)=C(NCCCCSC(C)=S)C3=O)N1C[C@@H]1N[C@@H]12 [Compound 30] | 0.31 (≈ 0.645 µM) | 58.1 | 0.31 (≈ 0.645 µM) | 5 (≈ 10.4 µM) | – | > 1.1 | 37.7 | > 2.7 | 0.31 (≈ 0.645 µM) | > 100 | 1.3 (≈ 2.7 µM)
12 | CO[C@@]12[C@H](COC(N)=O)C3=C(C(=O)C(C)=C(NCCCCCCSC(C)=S)C3=O)N1C[C@@H]1N[C@@H]12 [Compound 31] | 2.5 (≈ 4.91 µM) | 27.5 | 2.5 (≈ 4.91 µM) | 10 (≈ 19.7 µM) | – | > 1.5 | 28.1 | > 3.6 | 1.3 (≈ 2.56 µM) | > 100 | 2.5 (≈ 4.91 µM)

Source: patent publication US4771068A, “Mitomycin derivatives having anti-tumor and antibacterial utility” (priority 1985, dated 1988)
